We go through 14 molecules from patent publication US20230192661A1, “1, 4, 5, 6-TETRAHYDROPYRIMIDINE-2-AMINE DERIVATIVE” (UBE Corporation, priority 2020, published 2023).

Data set [1] can be described thus: Transcellular transport test using Caco2 cell. In kind it is in vitro ADME. The conditions noted are these: human, Caco-2; Caco2 monolayer, A-to-B, 10 μM compound, pH 7.4, 90 minutes. Here is the method:
Caco2 cells (purchased from ATCC) were cultured in DMEM medium (Thermo Fisher Scientific, Inc., 11965) containing 10% FBS (Thermo Fisher Scientific, Inc., 10082) and 1% penicillin/streptomycin/amphotericin B (Thermo Fisher Scientific, Inc., 15240). A transcellular transport test was carried out in accordance with MultiScreen Caco2 Drug Transport Assembly in a 96-well system (Application Note AN1727EN, MultiScreen Caco-2 Assay System, Merck) by partially modifying it. The Caco2 cells were inoculated at a cell density of 4×10^4 cells/well onto a micropore polycarbonate insert of a 96-well plate (Merck, Millcell-96 culture insert plate 0.4 μm pore size, well membrane area=0.11 cm^2, PSHT004S5) and cultured for 20 to 22 days, and the resulting monolayer was used in the transcellular transport test. The medium of the inoculated cells was replaced with a fresh one every 3 to 4 days.
Apical-to-basolateral (A-to-B) transport in the Caco2 cell monolayer membrane was performed by using HBSS (Thermo Fisher Scientific, Inc., 14025) medium (pH=7.4) containing 20 mM HEPES (Thermo Fisher Scientific, Inc., 15630), and adding HEPES-containing HBSS medium containing 10 μM compound (a 10 mM solution of the compound in DMSO was added at a 1000-fold dilution; final DMSO concentration: 0.1%) at 75 μL/well to the apical side and HEPES-containing HBSS medium supplemented with no compound at 250 μL/well to the basolateral side, followed by culture at 37° C. for 90 minutes. After culture, a 100 μL aliquot was collected from the basolateral side, and the concentration of a permeated compound was measured by LC-MS/MS under measurement conditions mentioned later. Papp (apparent permeability; cm/sec) was calculated from the determined concentration. Papp was determined according to the expression given below by calculating the slope (dA/dt; nmol/sec) of a straight line drawn between two points 0 minutes and zero amount of the compound in a graph plotted with an assay time (90 min) on the abscissa against the amount of the compound in the solution on the permeated side on the ordinate. As for an assay concentration, the concentration in the compound in the HEPES-containing HBSS medium containing the added compound was measured by UV-HPLC under measurement conditions mentioned later.
Papp (cm/sec)=C0×S×(dA/dt)
C0: assay concentration, S: plate membrane area=0.11 cm^2

For data set [2], the system named is TGF-β activation (phosphorylated SMAD3). Nature of the data set: TGF-β activation inhibition test (inhibition of SMAD3 phosphorylation in TFK-1 cells). In kind it is cell-based. As to conditions: 48 h, fibronectin-coated plate, cultured 2 days, read-out: IC50 (rate of inhibition of phosphorylated SMAD3). Here is the method: In Test Example 3, the inhibition of TGF-β activation by a compound was detected with the inhibition of SMAD3 phosphorylation as an index. In Test Example 3, the same reagents as in Test Example 1 were used unless otherwise specified.
Human fibronectin was prepared at 14 μg/mL with PBS and then dispensed at 50 μL/well to a 96-well plate. The plate was left standing at room temperature for 1 hour or longer, followed by the removal of the fibronectin solution. The plate was washed with PBS and used as a coated plate.
A test compound dissolved in DMSO was added to RPMI medium 1640 (manufactured by Thermo Fisher Scientific, Inc., 11875) containing 1% FBS and 1% penicillin/streptomycin/amphotericin B to prepare a medium containing the test compound having a concentration of two times the final concentration. This medium was added at 100 μL/well to the coated plate. TFK-1 cells (Cell Resource Center for Biomedical Research, Institute of Development, Aging and Cancer, Tohoku University) cultured in RPMI medium 1640 containing 10% FBS and 1% penicillin/streptomycin/amphotericin B were suspended in RPMI medium 1640 containing 1% FBS and 1% penicillin/streptomycin/amphotericin B to prepare a cell suspension of 1×10^6 cells/mL. The prepared cell suspension was further added at 100 μL/well and cultured for 2 days in a 5% CO2 incubator (37° C.).
Phosphorylated SMAD3 in the cells thus cultured for 2 days was measured using Phospho-SMAD3 (Ser423/425) cellular kit (manufactured by cisbio, 63ADK025), and a DeltaF value was calculated according to the calculation expression of the kit. Inhibition when 10 μM LY364947 (FUJIFILM Wako Pure Chemical Corp., 123-05981) was added instead of the test compound was defined as 100% inhibition, and inhibition when DMSO was added instead was defined as 0% inhibition. The rate of inhibition of phosphorylated SMAD3 by the test compound was calculated according to the following expression.
Rate of inhibition of phosphorylated SMAD3 (%)=[1−{(DeltaF value in the case of adding the test compound)−(DeltaF value in the case of adding 10 μM LY364947)}/{(DeltaF value in the case of adding DMSO)−(DeltaF value in the case of adding 10 μM LY364947)}]×100
An IC50 value was calculated from the rate of inhibition of phosphorylated SMAD3 by the test compound. A: IC50<10 nM, B: 10 nM≤IC50<50 nM, C: 50 nM≤IC50<100 nM, or D: IC50≥100 nM.

Where only a bound is given, the exact number is not on record here.

One may read the Papp A→B as how fast a substance crosses the layer from the apical side. Read a low Papp A→B as slow passage. Broadly, the IC50 is the concentration needed to halve the response being measured.

For the molecule `O=C(O)C[C@H](NC(=O)CNC(=O)c1cc(NC2=NCC(F)CN2)c2cn[nH]c2c1)c1ccc(C(F)(F)F)cc1` (stereo partly drawn) [Example 47-(b), (3S)-3-(2-(4-((5-fluoro-1,4,5,6-tetrahydropyrimidin-2-yl)amino)-1H-indazole-6-carboxamido)acetamido)-3-(4-(trifluoromethyl)phenyl)propanoic acid], the apparent permeability from apical to basolateral (Papp A→B) at 90 min, 10 μM in data set [1] was above 1 ×10⁻⁶ cm/s. For the same molecule, the IC50 in data set [2] was in the range of 10 to 50 nM.
Turning to `O=C(O)C[C@H](NC(=O)CNC(=O)c1cc(NC2=NCC(F)CN2)c2cn[nH]c2c1)c1cccc(Cl)c1` (stereo partly drawn) [Example 41-(b), (3S)-3-(3-chlorophenyl)-3-(2-(4-((5-fluoro-1,4,5,6-tetrahydropyrimidin-2-yl)amino)-1H-indazole-6-carboxamido)acetamido)propanoic acid], the Papp A→B at 90 min, 10 μM in data set [1] was above 1 ×10⁻⁶ cm/s. In addition, in data set [2], the IC50 is below 10 nM.
In turn, `Cc1cc([C@H](CC(=O)O)NC(=O)CNC(=O)c2cc(NC3=NCC(F)CN3)c3cn[nH]c3c2)cc(C(F)(F)F)c1` (stereo partly drawn) [Example 4-(b), (3S)-3-(2-(4-((5-fluoro-1,4,5,6-tetrahydropyrimidin-2-yl)amino)-1H-indazole-6-carboxamido)acetamido)-3-(3-methyl-5-(trifluoromethyl)phenyl)propanoic acid] had a Papp A→B at 90 min, 10 μM in data set [1] above 1 ×10⁻⁶ cm/s. Further, in data set [2], the IC50 was below 10 nM.
For `O=C(O)C[C@H](NC(=O)CNC(=O)c1cc(NC2=NCC(F)CN2)c2cn[nH]c2c1)c1cccc(OC(F)(F)F)c1` (stereo partly drawn) [Example 36-(b), (3S)-3-(2-(4-((5-fluoro-1,4,5,6-tetrahydropyrimidin-2-yl)amino)-1H-indazole-6-carboxamido)acetamido)-3-(3-(trifluoromethoxy)phenyl)propanoic acid] the same measures were above 1 ×10⁻⁶ cm/s and 10 to 50 nM.
In turn, `Cc1cc(C)n(-c2cccc([C@H](CC(=O)O)NC(=O)CNC(=O)c3cc(NC4=NCC(F)CN4)c4cn[nH]c4c3)c2)n1` (stereo partly drawn) [Example 44-(b), (3S)-3-(3-(3,5-dimethyl-1H-pyrazol-1-yl)phenyl)-3-(2-(4-((5-fluoro-1,4,5,6-tetrahydropyrimidin-2-yl)amino)-1H-indazole-6-carboxamido)acetamido)propanoic acid] yielded a Papp A→B at 90 min, 10 μM in data set [1] of 0.5 to 1 ×10⁻⁶ cm/s. Moreover, the IC50 in data set [2] was below 10 nM.
As for `O=C(O)C[C@H](NC(=O)CNC(=O)c1cc(NC2=NCC(F)CN2)c2cn[nH]c2c1)c1cccc(C2CC2)c1` (stereo partly drawn) [Example 39-(b), (3S)-3-(3-cyclopropylphenyl)-3-(2-(4-((5-fluoro-1,4,5,6-tetrahydropyrimidin-2-yl)amino)-1H-indazole-6-carboxamido)acetamido)propanoic acid], the Papp A→B at 90 min, 10 μM in data set [1] is above 1 ×10⁻⁶ cm/s. Moreover, the IC50 in data set [2] is below 10 nM.
`O=C(O)C[C@H](NC(=O)CNC(=O)c1cc(NC2=NCC(F)CN2)c2cn[nH]c2c1)c1cc(C(F)(F)F)ccc1Cl` (stereo partly drawn) [Example 12-(b), (3S)-3-(2-chloro-5-(trifluoromethyl)phenyl)-3-(2-(4-((5-fluoro-1,4,5,6-tetrahydropyrimidin-2-yl)amino)-1H-indazole-6-carboxamido)acetamido)propanoic acid] yielded a Papp A→B at 90 min, 10 μM in data set [1] above 1 ×10⁻⁶ cm/s. In addition, the IC50 in data set [2] was at least 100 nM.
In turn, `O=C(O)C[C@H](NC(=O)CNC(=O)c1cc(NC2=NCC(F)CN2)c2cn[nH]c2c1)c1cc(-n2cccn2)cc(C(F)(F)F)c1` (stereo partly drawn) [Example 8-(b), (3S)-3-(3-(1H-pyrazol-1-yl)-5-(trifluoromethyl)phenyl)-3-(2-(4-((5-fluoro-1,4,5,6-tetrahydropyrimidin-2-yl)amino)-1H-indazole-6-carboxamido)acetamido)propanoic acid] had a Papp A→B at 90 min, 10 μM in data set [1] of 0.5 to 1 ×10⁻⁶ cm/s. The IC50 in data set [2] is below 10 nM.
As to `O=C(O)C[C@H](NC(=O)CNC(=O)c1cc(NC2=NCC(F)CN2)cc2[nH]ncc12)c1cc(I)cc(C(F)(F)F)c1` (stereo partly drawn) [Example 54-(b), (3S)-3-(2-(6-((5-fluoro-1,4,5,6-tetrahydropyrimidin-2-yl)amino)-1H-indazole-4-carboxamido)acetamido)-3-(3-iodo-5-(trifluoromethyl)phenyl)propanoic acid], the Papp A→B at 90 min, 10 μM in data set [1] lay in the range of 0.1 to 0.5 ×10⁻⁶ cm/s. Besides, in data set [2], the IC50 was below 10 nM.
In data set [1], `O=C(O)C[C@H](NC(=O)CNC(=O)c1cc(NC2=NCC(F)CN2)c2c(Cl)n[nH]c2c1)c1cc(Cl)cc(C(F)(F)F)c1` (stereo partly drawn) [Example 49-(b), (3S)-3-(2-(3-chloro-4-((5-fluoro-1,4,5,6-tetrahydropyrimidin-2-yl)amino)-1H-indazole-6-carboxamido)acetamido)-3-(3-chloro-5-(trifluoromethyl)phenyl)propanoic acid] displayed an apparent permeability from apical to basolateral (Papp A→B) at 90 min, 10 μM of 0.5 to 1 ×10⁻⁶ cm/s. Further, in data set [2], the IC50 is below 10 nM.
On to `O=C(O)C[C@H](NC(=O)CNC(=O)c1cc(NC2=NCC(F)CN2)c2cn[nH]c2c1)c1cc(Cl)cc(Cl)c1` (stereo partly drawn) [Example 17-(b), (3S)-3-(3,5-dichlorophenyl)-3-(2-(4-((5-fluoro-1,4,5,6-tetrahydropyrimidin-2-yl)amino)-1H-indazole-6-carboxamido)acetamido)propanoic acid], for which the Papp A→B at 90 min, 10 μM in data set [1] was above 1 ×10⁻⁶ cm/s. In addition, the IC50 in data set [2] is below 10 nM.
In data set [1], `O=C(O)C[C@H](NC(=O)CNC(=O)c1cc(NC2=NCC(F)CN2)cc2[nH]ncc12)c1ccc(F)c(C(F)(F)F)c1` (stereo partly drawn) [Example 55-(b), (3S)-3-(2-(6-((5-fluoro-1,4,5,6-tetrahydropyrimidin-2-yl)amino)-1H-indazole-4-carboxamido)acetamido)-3-(4-fluoro-3-(trifluoromethyl)phenyl)propanoic acid] yielded a Papp A→B at 90 min, 10 μM of 0.1 to 0.5 ×10⁻⁶ cm/s. Besides, in data set [2], the IC50 is below 10 nM.
In data set [1], `Cc1ccc([C@H](CC(=O)O)NC(=O)CNC(=O)c2cc(NC3=NCC(F)CN3)c3cn[nH]c3c2)cc1C(F)(F)F` (stereo partly drawn) [Example 14-(b), (3S)-3-(2-(4-((5-fluoro-1,4,5,6-tetrahydropyrimidin-2-yl)amino)-1H-indazole-6-carboxamido)acetamido)-3-(4-methyl-3-(trifluoromethyl)phenyl)propanoic acid] came in with a Papp A→B at 90 min, 10 μM above 1 ×10⁻⁶ cm/s. Besides, in data set [2], the IC50 was below 10 nM.
Take `O=C(O)C[C@H](NC(=O)CNC(=O)c1cc(NC2=NCC(F)CN2)c2c(F)n[nH]c2c1)c1cc(Cl)cc(C(F)(F)F)c1` (stereo partly drawn) [Example 48-(b), (3S)-3-(3-chloro-5-(trifluoromethyl)phenyl)-3-(2-(3-fluoro-4-((5-fluoro-1,4,5,6-tetrahydropyrimidin-2-yl)amino)-1H-indazole-6-carboxamido)acetamido) propanoic acid]: the Papp A→B at 90 min, 10 μM in data set [1] was above 1 ×10⁻⁶ cm/s. Further, the IC50 in data set [2] was below 10 nM.
